# Experimental data from patent US20060122195A1, “Sulphonamide compounds that modulate chemokine receptor activity (ccr4)” (priority 2003, published 2006).
# Molecular target: T1, human recombinant CCR4 receptor (Homo sapiens, UniProt P51679)
# T1 construct: Brussels, Belgium; host or cells: CHO-K1
# T1 sequence (P51679 1-360): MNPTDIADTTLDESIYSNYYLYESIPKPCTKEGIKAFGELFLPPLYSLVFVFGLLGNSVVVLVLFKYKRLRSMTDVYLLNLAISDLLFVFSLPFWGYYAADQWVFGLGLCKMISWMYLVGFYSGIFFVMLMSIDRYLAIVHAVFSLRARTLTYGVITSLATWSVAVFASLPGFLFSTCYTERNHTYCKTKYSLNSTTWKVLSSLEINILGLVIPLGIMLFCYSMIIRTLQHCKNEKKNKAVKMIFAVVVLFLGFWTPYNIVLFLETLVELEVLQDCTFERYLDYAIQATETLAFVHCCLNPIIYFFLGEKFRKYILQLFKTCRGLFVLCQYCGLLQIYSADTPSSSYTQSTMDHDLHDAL
# Experiment: FMAT whole cell binding assay (FB-MDC binding to CHO-K1 cells expressing CCR4)
# Conditions: inhibition of FB-MDC binding to CHO-K1 cells expressing human recombinant CCR4; two hours incubation at room temperature; mean
# Procedure: FMAT Whole Cell Binding Assay
# CHO-K1 cells stably expressing the human recombinant CCR4 receptor (Euroscreen; Brussels, Belgium) were cultured in NUT.MIX.F—12(HAM) medium with glutamax-1, containing 10% (v/v) foetal bovine serum and 400 μg ml^−1 geneticin
# Cells were harvested at approximately 70% confluence by treatment with a cell dissociation buffer, and seeded at 5×10^3 cells/100 μl culture medium into wells of a black Costar clear-bottomed 96-well microtitre plates. Plates were incubated overnight at 37° C. in 5% CO2 and used the following day.
# Before use, the cell plates were washed twice with 100 μl Hanks balanced salt solution (HBSS). To each well was then added 65 μl of HBSS, 10 μL of 10% DMSO in HBSS±test compound and then 25 μL of 2.8 nM FB-MDC (Applied Biosystems). This fluorescent probe was prepared from a 10 μM stock in 0.08% (v/v) TFA/16% (v/v) acetonitrile, diluted into HBSS.
# After two hours incubation in the dark at room temperature, the plates were analysed in an FMAT8100 reader (Applied Biosystems) to measure fluorescence that was associated with binding of FB-MDC to the cells. Compound activity was determined as an pIC50 [log(concentration of compound that results in 50% inhibition)], comparing fluorescence in control and background wells.
row,IC50 [nM],Structure (SMILES)
1,398,"COc1nc(SCC(O)c2nccs2)cnc1NS(=O)(=O)c1cccc(Cl)c1Cl (centres unmarked) [Example 15, 2,3-Dichloro-N-[5-[[2-hydroxy-2-(2-thiazolyl)ethyl]thio]-3-methoxypyrazinyl]-benzenesulfonamide]"
2,631,"COc1nc(SC[C@H](N)C(N)=O)cnc1NS(=O)(=O)c1cccc(Cl)c1Cl [Example 4, (2R)-2-Amino-3-[[5-[[(2,3-dichlorophenyl)sulfonyl]amino]-6-methoxypyrazinyl]thio]propanamide]"

# Tested on: not given
# Experiment: not given
# Conditions: not given
row,melting point [°C],Structure (SMILES)
1,160 to 164,"CNC(=O)[C@@H](N)CSc1cnc(NS(=O)(=O)c2cccc(Cl)c2Cl)c(OC)n1 [Example 5, (2R)-2-Amino-3-[[5-[[(2,3-dichlorophenyl)sulfonyl]amino]-6-methoxypyrazinyl]thio]-N-methyl-propanamide]"
2,88 to 90,"COC(=O)[C@@H](O)CSc1cnc(NS(=O)(=O)c2cccc(Cl)c2Cl)c(OC)n1 [Example 25, 3-[[5[[(2,3-Dichlorophenyl)sulfonyl]amino]-6-methoxypyrazinyl]thio]-(2R)-2-hydroxypropanoic acid, methyl ester]"
3,187 to 190,"COc1nc(SC[C@H](N)C(=O)N(C)C)cnc1NS(=O)(=O)c1cccc(Cl)c1Cl [Example 6, (2R)-2-Amino-3-[[5-[[(2,3-dichlorophenyl)sulfonyl]amino]-6-methoxypyrazinyl]thio]-N,N-dimethylpropanamide]"
4,175 to 178,"COc1nc(SCC(N)c2cccnc2)cnc1NS(=O)(=O)c1cccc(Cl)c1Cl (centres unmarked) [Example 22, N-[5-[[2-Amino-2-(3-pyridinyl)ethyl]thio]-3-methoxypyrazinyl]-2,3-dichloro benzenesulfonamide]"
5,180 to 190,"COc1nc(SC[C@H](N)C(=O)O)cnc1NS(=O)(=O)c1cccc(Cl)c1Cl [Example 3, S-[5-[[(2,3-Dichlorophenyl)sulfonyl]amino]-6-methoxypyrazinyl]-L-cysteine]"
6,68 to 80,"CNC(=O)[C@@H](N)CSc1nc(OC)c(NS(=O)(=O)c2cccc(Cl)c2Cl)nc1C [Example 29, (2R)-2-Amino-3-[[5[[(2,3-dichlorophenyl)sulfonyl]amino]methoxy-3-methylpyrazinyl]thio]-N-methylpropanamide]"
7,255 to 256,"COc1nc(SC[C@H](N)CO)c(Cl)nc1NS(=O)(=O)c1cccc(Cl)c1Cl [Example 10, N-[5-[[(2R)-2-Amino-3-hydroxypropyl]thio]-6-chloro-3-methoxypyrazinyl]-2,3-dichlorobenzenesulfonamide]"
8,148 to 152,"COc1nc(SC[C@H](N)C(N)=O)cnc1NS(=O)(=O)c1cccc(Cl)c1Cl [Example 4, (2R)-2-Amino-3-[[5-[[(2,3-dichlorophenyl)sulfonyl]amino]-6-methoxypyrazinyl]thio]propanamide]"
9,164 to 168,COC(=O)[C@@H](N)CSc1nc(OC)c(NS(=O)(=O)c2cccc(Cl)c2Cl)nc1C
10,170 to 173,"COc1nc(SC[C@H](N)C(=O)O)c(Cl)nc1NS(=O)(=O)c1cccc(Cl)c1Cl [Example 9, S-[3-Chloro-5[[(2,3-dichlorophenyl)sulfonyl]amino]-6-methoxypyrazinyl]-L-cysteine]"
11,170 to 174,"COC(=O)[C@@H](N)CSc1cnc(NS(=O)(=O)c2cccc(Cl)c2Cl)c(OC)n1 [Example 2, S-[5[[(2,3-Dichlorophenyl)sulfonyl]amino]-6-methoxypyrazinyl]-L-cysteine, methyl ester]"
12,141 to 143,"COc1nc(SCC(O)c2ccccc2)cnc1NS(=O)(=O)c1cccc(Cl)c1Cl (centres unmarked) [Example 20, 2,3-Dichloro-N-[5-[(2-hydroxy-2-phenylethyl)thio]-3-methoxypyrazinyl]benzenesulfonamide]"
13,172 to 174,"COc1nc(SCC(N)c2ccccn2)cnc1NS(=O)(=O)c1cccc(Cl)c1Cl (centres unmarked) [Example 26, N-[5-[[2-Amino-2-(2-pyridinyl)ethyl]thio]-3-methoxypyrazinyl]-2,3-dichlorobenzenesulfonamide]"
14,136 to 138,"COc1nc(SCC(O)CO)cnc1NS(=O)(=O)c1cccc(Cl)c1Cl (centres unmarked) [Example 19, 2,3-Dichloro-N-[5-[(2,3-dihydroxypropyl)thio]-3-methoxypyrazinyl]benzenesulfonamide]"
15,176 to 177,"COc1nc(SCC(O)c2ccncc2)cnc1NS(=O)(=O)c1cccc(Cl)c1Cl (centres unmarked) [Example 23, 2,3-Dichloro-N-[5-[[2-hydroxy-2-(4-pyridinyl)ethyl]thio]-3-methoxypyrazinyl]benzenesulfonamide]"
16,168 to 169,"COc1nc(SCC(N)c2nccs2)cnc1NS(=O)(=O)c1cccc(Cl)c1Cl (centres unmarked) [Example 30, N-[5-[[2-Amino-2-(2-thiazolyl)ethyl]thio]-3-methoxypyrazinyl]-2,3-dichlorobenzenesulfonamide]"
17,143 to 145,"COc1nc(SCC(O)c2ccccn2)cnc1NS(=O)(=O)c1cccc(Cl)c1Cl (centres unmarked) [Example 24, 2,3-Dichloro-N-[5-[[2-hydroxy-2-(2-pyridinyl)ethyl]thio]-3-methoxypyrazinyl]benzenesulfonamide]"
18,150 to 155,"CNC(=O)[C@@H](N)CSc1nc(OC)c(NS(=O)(=O)c2cccc(Cl)c2Cl)nc1Cl [Example 28, (2R)-2-Amino-3-[[3-chloro-5-[[(2,3-dichlorophenyl)sulfonyl]amino]-6-methoxypyrazinyl]thio]-N-methylpropanamide]"
19,187 to 189,"COc1nc(SCC(N)c2nccn2C)cnc1NS(=O)(=O)c1cccc(Cl)c1Cl (centres unmarked) [Example 27, N-[5-[[2-Amino-2-(1-methyl-1H-imidazol-2-yl)ethyl]thio]-3-methoxypyrazinyl]-2,3-dichlorobenzenesulfonamide]"
20,188 to 190,"COc1nc(SCC(O)c2cccnc2)cnc1NS(=O)(=O)c1cccc(Cl)c1Cl (centres unmarked) [Example 21, 2,3-Dichloro-N-[5-[[2-hydroxy-2-(3-pyridinyl)ethyl]thio]-3-methoxypyrazinyl]benzenesulfonamide]"
21,170 to 173,"COC(=O)[C@@H](N)CSc1nc(OC)c(NS(=O)(=O)c2cccc(Cl)c2Cl)nc1Cl [Example 8, S-[3-Chloro-5-[[(2,3-dichlorophenyl)sulfonyl]amino]-6-methoxypyrazinyl]-L-cysteine, methyl ester]"
